From ChEMBL document CHEMBL1201862, “PubChem BioAssay data set” (2004) come the findings set out here.

Among the test systems are 786-0; ACHN; CCRF-CEM; COLO 205; DU-145; HCC 2998; HCT-116; HOP-92; HT-29; M14; MCF7; NCI-H460; NCI/ADR-RES; PC-3; SK-MEL-28; SK-OV-3; SN12C; SNB-19; SR; NCI-H226.
Common to all, as to assay: inhibition of tumour cell growth, NCI panel, 48 h

Structures are written as SMILES.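 All cell lines were grown in 96-well plates and treated with compound for 48 hours. GI50 is the concentration that inhibits growth by half.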 The source made the active and inactive calls. Rule as the data show it: active = GI50 up to about 1.1 µM and inactive = higher.

With `COC(=O)C(C)(C)OCc1ccc(C2NC(=O)N(c3cccc(Cl)c3)C(=O)N2c2cccc(Cl)c2)cc1` (stereo not given), the GI50 in the test on 786-0 is 40.9 µM (inactive); in the test with ACHN, 47.9 µM (inactive); with CCRF-CEM it was 10.6 µM (inactive); with COLO 205 it was 28.6 µM (inactive); in the test on DU-145, 59.7 µM (inactive); in the test on HCC 2998, 40.6 µM (inactive). For the same compound, the GI50 in the test on HCT-116 is 36.6 µM (inactive); in the test with HOP-92, 15.1 µM (inactive); in the test with HT-29, 26.1 µM (inactive); with M14, 65.3 µM (inactive); in the test on MCF7, 35.7 µM (inactive); with NCI-H460 it was 29.4 µM (inactive). For the same compound, the GI50 in the test on NCI/ADR-RES was 17.1 µM (inactive); with PC-3 it was 20.2 µM (inactive); in the test on SK-MEL-28 it was > 100 µM (inactive); in the test with SK-OV-3, 54.3 µM (inactive); in the test with SN12C it was 29.2 µM (inactive); in the test with SNB-19, > 100 µM (inactive). The GI50 with SR was 0.52 µM (active).

As for `Cn1c2ccc([N+](=O)[O-])cc2c(=O)c2c(O)cc(O)cc21`, the GI50 in the test on 786-0 is 19 µM (inactive); in the test with ACHN, 33.1 µM (inactive); in the test on CCRF-CEM, > 100 µM (inactive); with COLO 205 it was > 100 µM (inactive); in the test with DU-145, 47.8 µM (inactive); with HCC 2998, > 100 µM (inactive). For the same compound, the GI50 is 32.7 µM (inactive) with HOP-92; 60.4 µM (inactive) in the test on M14; 13.7 µM (inactive) with MCF7; 53.2 µM (inactive) in the test on NCI-H226; 24.9 µM (inactive) in the test with NCI-H460; 17 µM (inactive) with NCI/ADR-RES. Also, the GI50 is > 100 µM (inactive) in the test on PC-3; > 100 µM (inactive) with SK-MEL-28; 31.4 µM (inactive) in the test on SN12C; 18.1 µM (inactive) with SNB-19; 19.2 µM (inactive) in the test on SR.

On to `Cc1ccc(NC(=O)COc2ccc(Cl)cc2)cc1Cl`, for which the GI50 with 786-0 was 44.5 µM (inactive); in the test on ACHN, 42.7 µM (inactive); in the test with CCRF-CEM, 0.278 µM (active); in the test on COLO 205, > 100 µM (inactive); in the test on DU-145 it was > 100 µM (inactive); with HCT-116 it was 14.4 µM (inactive). In addition, the GI50 with HOP-92 is 51.8 µM (inactive); with HT-29 it was > 100 µM (inactive); with M14, 47.1 µM (inactive); in the test with MCF7 it was > 100 µM (inactive); in the test with NCI-H226 it was 31 µM (inactive); in the test with NCI-H460, > 100 µM (inactive). Further, the GI50 in the test with NCI/ADR-RES was 78.2 µM (inactive); in the test with PC-3, > 100 µM (inactive); with SK-MEL-28, > 100 µM (inactive); in the test on SK-OV-3, 52.4 µM (inactive); in the test with SN12C, 38.2 µM (inactive); in the test on SNB-19, 74.1 µM (inactive). In addition, the GI50 with SR was 10.1 µM (inactive).

On to `CC1=CCC(C)=Nc2nc3ccccc3n21`, for which the GI50 in the test on 786-0, in the test on ACHN, in the test with CCRF-CEM, in the test with COLO 205, in the test with DU-145 and in the test on HCT-116 was > 100 µM (inactive) in each case. The GI50 in the test with HOP-92, in the test with HT-29, with M14, in the test with MCF7, in the test with NCI-H226 and with NCI-H460 was > 100 µM (inactive) in each case. In addition, the GI50 with NCI/ADR-RES, in the test with PC-3, in the test with SK-MEL-28, in the test on SK-OV-3, with SN12C and in the test with SNB-19 was > 100 µM (inactive) in each case. In addition, the GI50 in the test on SR was > 100 µM (inactive).

For `CC(=O)OCCC1c2ccccc2-n2nc(-c3ccccc3)c(O)c21` (stereo not given), the GI50 in the test on 786-0 was 18.6 µM (inactive); in the test with ACHN it was 19.1 µM (inactive); in the test on CCRF-CEM it was 11.6 µM (inactive); in the test on COLO 205, 20.1 µM (inactive); in the test on DU-145 it was 17.7 µM (inactive); with HCC 2998 it was 24.8 µM (inactive). The GI50 in the test with HCT-116 is 16.5 µM (inactive); with HOP-92, 11.9 µM (inactive); in the test with HT-29, 21.2 µM (inactive); in the test with M14, 15.3 µM (inactive); in the test on MCF7 it was 7.11 µM (inactive); with NCI-H226 it was 26 µM (inactive). In addition, the GI50 with NCI-H460 is 14.5 µM (inactive); in the test with NCI/ADR-RES it was 14.8 µM (inactive); with PC-3 it was 17.3 µM (inactive); in the test with SK-MEL-28, 16.2 µM (inactive); in the test with SN12C, 14.8 µM (inactive); in the test on SNB-19 it was 14.6 µM (inactive). For the same compound, the GI50 in the test with SR was 11.4 µM (inactive).

Regarding `CC(=O)OC1(C)CC(C)C(=O)C(C(O)CC2CC(=O)NC(=O)C2)C1` (stereo not given), the GI50 is 0.0204 µM (active) in the test with 786-0; 0.00743 µM (active) in the test with ACHN; 0.00507 µM (active) with CCRF-CEM; 0.0108 µM (active) with COLO 205; 0.0118 µM (active) in the test on DU-145; 0.01 µM (active) in the test with HCC 2998. Further, the GI50 was 0.00743 µM (active) in the test with HCT-116; 0.00172 µM (active) with HOP-92; 0.00798 µM (active) with HT-29; 0.0161 µM (active) with M14; 0.0176 µM (active) in the test on MCF7; 0.0448 µM (active) with NCI-H226. Further, the GI50 with NCI-H460 is 0.0121 µM (active); in the test on NCI/ADR-RES it was 0.0386 µM (active); in the test on PC-3, 0.0199 µM (active); in the test with SK-MEL-28 it was 0.00776 µM (active); with SN12C, 0.00822 µM (active); in the test on SNB-19, 0.0141 µM (active). In addition, the GI50 in the test on SR was 0.00185 µM (active).

`CC[C@]12C=CCN3CC[C@@]4(c5cc(Br)c(OC)cc5N(C)[C@H]4[C@@](O)(C(=O)NC(Cc4c[nH]c5ccccc45)C(=O)OC)[C@@H]1O)[C@@H]32` (stereo not given in full): the GI50 in the test with 786-0 was 45.5 µM (inactive); in the test with ACHN, 17.5 µM (inactive); in the test on CCRF-CEM, 5.62 µM (inactive); in the test on COLO 205, 3.46 µM (inactive); with DU-145, 35.2 µM (inactive); in the test with HCT-116, 7.08 µM (inactive). Further, the GI50 in the test on HOP-92 is 22.3 µM (inactive); in the test on HT-29 it was 7.89 µM (inactive); in the test with M14 it was 20.5 µM (inactive); in the test with MCF7, 12.3 µM (inactive); in the test with NCI-H226 it was 10.8 µM (inactive); with NCI/ADR-RES, 7.91 µM (inactive). In addition, the GI50 was 8.2 µM (inactive) in the test on PC-3; 92.9 µM (inactive) in the test with SK-MEL-28; > 100 µM (inactive) in the test with SK-OV-3; 29.4 µM (inactive) with SN12C; 33.2 µM (inactive) in the test on SNB-19; 4.33 µM (inactive) in the test on SR.

For `O=C(O)c1cccc(NC(C(=O)c2ccccc2)c2ccccc2)c1` (stereo not given), the GI50 with 786-0, with ACHN, in the test on CCRF-CEM, in the test on COLO 205, with DU-145 and in the test on HCC 2998 was > 100 µM (inactive) throughout. The GI50 in the test with HCT-116 is > 100 µM (inactive); with HOP-92, 34 µM (inactive); in the test on M14, > 100 µM (inactive); in the test with MCF7 it was > 100 µM (inactive); with NCI-H460 it was > 100 µM (inactive); with NCI/ADR-RES, > 100 µM (inactive). For the same compound, the GI50 with PC-3, in the test with SK-MEL-28, with SK-OV-3, with SN12C, in the test with SNB-19 and in the test on SR was > 100 µM (inactive) each time.

`Cc1ccc(S(=O)(=O)c2ccsc2NC(=O)c2ccccc2)cc1`: the GI50 was 23 µM (inactive) with 786-0; > 42.6 µM (inactive) in the test with ACHN; > 100 µM (inactive) in the test on COLO 205; > 100 µM (inactive) in the test on DU-145; > 100 µM (inactive) with HCC 2998; > 100 µM (inactive) in the test on HCT-116. For the same compound, the GI50 in the test with HOP-92 was 26.7 µM (inactive); in the test with M14 it was > 100 µM (inactive); with MCF7 it was > 26.7 µM (inactive); in the test with NCI-H226, > 60.4 µM (inactive); in the test with NCI-H460 it was 41.1 µM (inactive); with NCI/ADR-RES, 35.2 µM (inactive). In addition, the GI50 is > 81.5 µM (inactive) in the test with PC-3; > 100 µM (inactive) with SK-MEL-28; 46.9 µM (inactive) with SK-OV-3; > 100 µM (inactive) in the test on SN12C; > 64.3 µM (inactive) in the test with SNB-19; 4.79 µM (inactive) in the test on SR.

Consider `CN(C)CCCN1c2ccc(O)cc2Sc2ccc(Cl)cc21` [7-HYDROXYCHLORPROMAZINE], for which the GI50 in the test on 786-0 was 11.1 µM (inactive); with ACHN, 14.8 µM (inactive); with CCRF-CEM, 0.859 µM (active); in the test on COLO 205, 20.8 µM (inactive); in the test on DU-145, 17.9 µM (inactive); in the test on HCT-116, 6.3 µM (inactive). Besides, the GI50 in the test with HOP-92 was 4.25 µM (inactive); in the test with HT-29, 3.48 µM (inactive); with M14 it was 5.97 µM (inactive); in the test on MCF7, 13.2 µM (inactive); with NCI-H226 it was 11.3 µM (inactive); in the test with NCI-H460 it was 3.82 µM (inactive). Also, the GI50 in the test on NCI/ADR-RES was 14.7 µM (inactive); in the test with PC-3, 5.33 µM (inactive); with SK-MEL-28, 11.1 µM (inactive); in the test on SK-OV-3 it was 17.4 µM (inactive); with SN12C it was 10.3 µM (inactive); with SNB-19, 13.3 µM (inactive). Moreover, in the test with SR, the GI50 was 2.96 µM (inactive).
